“Also recorded” adds a separate entry of the source. Like-named read-outs stand apart in the source and are kept apart here.
Key:
[1] = test system: Pseudomonas aeruginosa biofilm; test: Sequential application of CDA then biocide on 3-day-old biofilm grown in CDC biofilm reactor (single tube method); assay type: cell-based; details: for effect on biofilm of biocides applied alone, compared with each other: Example 8, 5 ppm, 1 h (FIG. 17)
[2] = test system: biofilm formed by mixed bacteria (Staphylococcus aureus 6538, Bacillus mycoides 6462 and Pseudomonas aeruginosa 700888); test: Sequential application of CDA then biocide on mixed-bacteria biofilm grown in CDC biofilm reactor; assay type: cell-based
[3] = Storage stability of biocide/CDA liquid concentrates (HPLC); assay type: physicochemical
Procedure: 22 mg of cis-2-decenoic acid (CiVentiChem, 96.72% purity) were charged into 50 ml flask, equipped with a stirrer 3.99 gr of C-103 (ICL, batch 640160147) were added, followed by 9.97 gr of PEG200 (Merck 8.07483.5000 Lot 56904983 451), 5.95 gr of DI water and 22 mg of BHT (Aldrich B1378-100G, BCBH9491V). The obtained solution was stirred till complete clarification; sonication at +30° C. is recommended if some particles are observed. Clear colorless solution of a total […] and 20:50:30:0.1:0.1 weight ratio of C103-PEG200-H2O-CDA-BHT was obtained.
The solution was tested to determine the stability of the biocide and CDA and under storage at 25° C. over a two-month period.
47.6 mg or cis-2-decenoic acid (CiVentiChem, 96.72% purity) were charged into 50 ml flask, equipped with a stirrer. 9.01 gr of Bronopol (ICL, batch 17101607) were added, followed by 18.03 gr of propylene glycol (Biolab 16200201 Lot 1007861), 3.0 gr of DI water and 31.2 mg of BHT (Aldrich B1378-100G, BCBH9491V). After stirring for several minutes, undissolved traces of BHT were filtered through filtering paper for BHT particle removal. Clear colorless solution of a total 30 gr and 30:60:10:0.158:0.1 weight ratio of Bronopol-PG-H2O-CDA-BHT was obtained.

P. aeruginosa biofilm = test: Simultaneous application of CDA salt form and biocide on 3-day biofilm, CDC biofilm reactor, pH 8-9; assay type: cell-based, Pseudomonas aeruginosa; details: 310 nM CDA, 1 h
[4] = Stepwise acidification of CDA sodium/lithium salt (pKa); assay type: physicochemical
[5] = test system: P. aeruginosa strain PA14 biofilm; test: Simultaneous application of CDA and biocide on 3-day biofilm in 24-well plates; assay type: cell-based, Pseudomonas aeruginosa; details: for Log reduction vs. control: biocide alone / Enhancement / Log reduction vs. control: combination of the 310 nm CDA and biocide: biocide 10 ppm; for Enhancement: simultaneous 310 nm CDA; for Log reduction vs. control: combination of the 310 nm CDA and biocide: simultaneous application
Procedure: The effect of bromine-containing biocide in combination with CDA on pre-grown biofilms was studied. The experiment was carried out utilizing (A) the P. aeruginosa strain PA14 and (B) mixed bacterial species derived from environmental and industrial water.
Bacteria were cultured in EPRI medium supplemented with Hutners mineral solution and glucose (0.2%). Microorganisms were incubated at room temperature (22° C.), under aerobic conditions with shaking. The biofilm culture system used included polystyrene 24-well plates that were treated with protein to enhance attachment and growth of biofilm bacteria according to the method described in Davies D G, Marques C N, 2009, J Bacteriol 191:1393-1403.
Following inoculation with 1 mL bacterial culture, spent medium was removed and replaced with sterile medium every 24 hours for 3 days, and a final medium exchange was performed 3 hours prior to treatment. Additionally, the medium was exchanged prior to treatment in order to remove planktonic bacteria. Treatments consisted of 100 μL of 310 nM CDA and bromine-containing biocide, or bromine-containing biocide alone at concentrations used in commercial water treatment, water was used as a carrier, for a contact time determined by activity of each biocide and ranging from 1 hour to 24 hours, as detailed below for each of the tested biocides.
Following the treatment, the medium from each well was removed by pipet and 1 mL of DE neutralization broth was added in order to stop the treatment. Bacteria from each well were then removed by scraping the biofilm formed in the well with a sterile cell-scraper, and 1.0 mL of culture was transferred to chilled (4° C.) 9.0 mL DE neutralizing broth and homogenized for 15 seconds at 40,000 rpm on ice. Further dilutions were performed prior to enumeration (further neutralizing biocide activity). Recovery of bacteria were tested at different dilutions of biocide in water, in LB medium with thioglycolate and in DE neutralizing broth to ensure the active agent was properly neutralized. Viable bacteria were enumerated via the drop plate method. Each biocide was evaluated using 24-well plates with 8 wells each for the control cultures (Ctl) inoculated with P. aeruginosa but not treated, a CDA minus test (−CDA) treated with bromine-containing biocide only, and a CDA plus test treated with bromine-containing biocide and CDA (+CDA).

[6] = test system: mix of planktonic bacteria (E. Coli ATCC 11229, S. aureus ATCC 6538, Enterobacter aerogenes ATCC 130489, P. aeruginosa ATCC 13388); test: Quantitative suspension test (modified EN 1040) on planktonic bacteria, sequential CDA then biocide; assay type: cell-based; details: 2.5 ppm BCDMH 3 h, 310 nM CDA 1 h before; TOC=30 ppm, 30° C.
Procedure: 310 nM CDA and bromine-containing biocide were introduced into a mix of planktonic bacteria in a medium containing different levels of organic loading (TOC 10-3000 ppm). High organic loading tends to reduce the efficacy of antimicrobial agents in industrial applications and, therefore, the test was aimed to mimic these conditions. The test was performed in accordance with the modified European standard EN 1040: 2005: “Chemical disinfectants and antiseptics—Quantitative suspension test for the evaluation of basic bactericidal activity of chemical disinfectants and antiseptics—Tests method and requirements (phase 1)”. 19 ml of phosphate buffer solution (pH=7) including tryptone in order to obtain a solution of TOC=30 ppm, and 1 ml of the tested bacteria suspension (consisted of E. Coli (ATCC 11229), S. aureus (ATCC 6538), Enterobacter aerogenes (ATCC 130489) and P. aeruginosa (ATCC 13388)), at a concentration of 1.5×10^8-5×10^8 CFU/ml, were placed into a container of suitable capacity. A stopwatch was started immediately and the container was placed in a water bath controlled at 30° C.
The activity was determined with 2.5 ppm BCDMH alone for a contact time of 3 hours. […] Countable plates were counted and the number of colony-forming units was determined, for each plate.

OCl [sodium hypochlorite, Sodium hypochlorite, reference compound]
reduction by biocide/CDA combination versus the solely applied biocide [1]: 2 log units | effect on biofilm of biocides applied alone, compared with each other [1]: comparable effect

CCCCCCC/C=C\C(=O)O [CDA, cis-2-decenoic acid]
effect of CDA alone on biofilm compared to the control [1]: no useful effect | effect of CDA alone on biofilm compared to the control ([1]; 310 nM CDA, commercial (97%) or crude (90%), 1 h): no useful effect | biocidal action of CDA alone (reduction of bacterial counts) ([1]; CDA on its own, broad concentration range, even >3000 nM): failed to demonstrate biocidal action | effect of CDA alone on biofilm compared to the control ([2]; 310 nM commercial CDA, mixed bacteria biofilm): no useful effect | degradation under storage (HPLC) ([3]; Example 6 concentrate C103-PEG200-H2O-CDA-BHT 20:50:30:0.1:0.1, 25° C., two months): Neither DBNPA nor CDA underwent degradation | degradation under storage (HPLC) ([3]; Example 7 concentrate Bronopol-PG-H2O-CDA-BHT 30:60:10:0.158:0.1, 25° C., two months): Neither bronopol nor CDA underwent degradation | effect of CDA alone on biofilm compared to the control (P. aeruginosa biofilm): no useful effect | pKa [4]: 6.5 to 7.5

CC1(C)C(=O)N(Cl)C(=O)N1Br [BCDMH, 1-bromo-3-chloro-5,5-dimethylhydantoin]
enhancement by combined treatment relative to biocide alone ([1]; 10 ppm BCDMH, 31 nM commercial CDA (FIG. 13)): 4.5 log units | enhancement by combined treatment relative to biocide alone ([1]; 10 ppm BCDMH, 310 nM commercial CDA (FIG. 13)): 4.5 log units | enhancement by combined treatment relative to biocide alone ([1]; 10 ppm BCDMH, 3100 nM commercial CDA (FIG. 13)): 5.5 log units | effect of 5.0 ppm biocide with 310 nM CDA relative to 10 ppm biocide without CDA ([1]; Example 3, sequential, FIG. 14): comparable | reduction by biocide/CDA combination versus the solely applied biocide ([1]; Example 8, 5 ppm biocide/310 nM CDA, sequential (FIG. 17)): 4.5 log units | effect on biofilm of biocides applied alone, compared with each other [1]: comparable effect | Log reduction vs. control: biocide alone ([1]; biocide 10 ppm, 1 h contact time, 3-day-old biofilm): ~3.5 log units | Enhancement ([1]; biocide 10 ppm, 310 nM CDA combination vs biocide alone): ~2.5 log units | Log reduction vs. control: combination of the 310 nM CDA and biocide ([1]; biocide 10 ppm, 1 h CDA 310 nM then 1 h biocide): ~6 log units | enhancement by combined treatment relative to biocide alone ([1]; text of Example 2, biocide 10 ppm, 310 nM commercial CDA (97% by GC)): ~2 log units | enhancement by combined treatment relative to biocide alone ([1]; text of Example 2, biocide 10 ppm, 310 nM crude CDA (90% by GC)): ~2 log units | biofilm reduction by biocide alone ([1]; text of Example 2, biocide 10 ppm, 1 h): ~3 log units | biofilm reduction by biocide alone ([2]; biocide 5 ppm or 10 ppm, mixed bacteria biofilm): reduces the biofilm | enhancement by combined treatment relative to biocide alone ([2]; biocide 5 ppm, 310 nM commercial CDA, mixed bacteria biofilm (FIG. 12A)): ~2.5 log units | enhancement by combined treatment relative to biocide alone ([2]; biocide 10 ppm, 310 nM commercial CDA, mixed bacteria biofilm (FIG. 12B)): ~5.5 log units | Log reduction vs. control: biocide alone ([2]; biocide 10 ppm, 1 h, biofilm formed by mixed bacteria): ~2 log units | Enhancement ([2]; biocide 10 ppm, 310 nM CDA combination vs biocide alone, mixed bacteria biofilm): ~5.5 log units | Log reduction vs. control: combination of the 310 nM CDA and biocide ([2]; biocide 10 ppm, 1 h CDA 310 nM then 1 h biocide, mixed bacteria biofilm): ~7.5 log units | log reduction of biocide and CDA compared with biocide alone ([5]; 10 ppm BCDMH, 310 nM CDA, one hour (FIG. 4)): 2 | Log reduction vs. control: biocide alone ([5]; 2 hours contact time): ~4 log units | Enhancement ([5]; 2 hours contact time): ~2 log units | Log reduction vs. control: combination of the 310 nm CDA and biocide ([5]; 2 hours contact time): ~6 log units | enhancement by CDA and biocide in sequence compared with biocide without CDA [6]: 2 log units

O=[N+]([O-])C(Br)(CO)CO [Bronopol, 2-bromo-2-nitro-1,3-propanediol]
reduction of number of bacteria by addition of CDA to the biocide treatment ([5]; 10 ppm bronopol, 310 nM CDA, two hours of treatment (FIG. 2A)): more than an order of magnitude | Log reduction vs. control: biocide alone ([5]; 24 hours contact time): ~6 log units | Log reduction vs. control: biocide alone ([5]; 24 hours contact time, listed as bronopol): very effective in reducing biofilm | Enhancement ([5]; 24 hours contact time): ~3 log units | Log reduction vs. control: combination of the 310 nm CDA and biocide ([5]; 24 hours contact time): effective in eradicating P. aeruginosa biofilm; also recorded: biofilm eradication | degradation under storage (HPLC) [3]: Neither bronopol nor CDA underwent degradation
